Data set [1] can be described thus: Determination of association constant by fluorescence titration with Zn^2+. Format: binding. The method, then:
(§1) The NIR emission intensity at ˜710 nm was linearly proportional to the Zn^2+ concentration (linearly dependent coefficient: R^2=0.9982) (FIGS. 18 and 19). […] The association constants K11 and K12 were determined by a nonlinear least-squares analysis of fluorescence intensity versus Zn^2+ ion concentration to be 3.21×10^5 M^−1 and 3.88×10^10 M^−2, respectively.
An approximate linear fit formula is used to calculate the single association constant Kass1 and Kass2:
[formula] where n is the number of equivalents of the added metal ions, F0 is the fluorescence intensity of the free sensor, and F1 is the fluorescence intensity in the presence of excess cation, C0 is the initial concentration of Zinhbo-5. Kass1 and Kass2 can be obtained by a linear analysis of (F1−F)(x) versus

Data set [2] is described as follows: Fluorescence response of the sensor in solution upon addition of Zn^2+. Type of data set: physicochemical.
Description: Free ligand Zinhbo-5 gave only weak green fluorescence at 520 and 560 nm. The green fluorescence signal was increased gradually upon addition of Zn^2+ (FIGS. 12 and 13). In addition, a new emission peak at ˜763 nm occurred, which has a very large Stokes shift (˜285 nm). The new emission band was attributed to the keto form arising from the ESIPT process (FIGS. 14 and 15). […] This is because the substituent at the 5-position of benzoxazole unit exerts less electronic interferences to the anticipated ESIPT process (as shown in structure 5). […] The stronger ESIPT from 9 could be associated with the increased rigidity, when two ligands were assembled together via chelation with Zn^2+ cation.
as §1
All the solvents were of analytic grade. The salt used in stock solutions of metal ions were Zn(OAc)2.2H2O, Co(OAc)2.4H2O, Ni(OAc)2.4H2O, Cu(OAc)2.H2O, MgSO4, Cd(OAc)2.6H2O, Mn(OAc)2.4H2O, FeCl2. 4H2O, CaCl2, Na2SO4, Hg(OAc)2, AgNO3, Pb(OAc)2.3H2O, KNO3. Water used was ultra filter deionized and purchased from fisher. HEPES (2-[4-(2-hydroxyethyl)-1-piperazinyl]-ethanesulfonic acid) was from Fisher. NMR spectra were collected on a Varian 300 Gemini spectrometer. Mass spectrometric data were obtained on a HP1100LC/MSD mass spectrometry. UV-Vis spectra were acquired on a Hewlett-Packard 8453 diode-array spectrometer. Fluorescence spectra were obtained on a HORIBA Jobin Yvon NanoLog spectrometer. All pH measurements were made with a model RS232 meter. The fluorescence quantum yield were obtained using quinine sulfate as the standard (Φ=0.53, 0.1 M H2SO4). Cell fluorescence imaging were obtained on a Nikon Eclipse TE2000-5 fluorescence microscope, and analyzed by MetaFluor software (Universal Imaging Corp.).

Another data set has as its system zebrafish. As to the kind of experiment: Imaging of Zn^2+ in developing zebrafish, probe added to fish tank water. Format: in vivo. The source says:
The most attractive application for zinc probes is sensing Zn^2+ in living organisms. Our ability to discover the fundamental roles of Zn^2+ is dependent on the tools available to detect the Zn^2+ population/concentration in living biological systems. Zebrafish has recently become an important model organism for the study of vertebrate imaging. This is because the embryos of zebrafish are transparent, allowing for clear observation of their organs without the need for dissection. The optical transparancy of zebrafish, therefore, provides a convenient organism for detection of ions by fluorescence microscopy. […] Encouraged by the cell permeability (FIG. 20), Zinhbo-5 was thus examined in developing zebrafish of various stages by adding Zinhbo-5 to fish tank water (treatment lasted for one hour at room temperature). […] However, there were more labeling in other parts of the body in the Zn^2+ treated larvae (FIG. 22 at I). […] Herein the in vivo recognition of the zinc-rich organ in zebrafish larva could be seen with higher image quality by using Zinhbo-5. […] The in vivo results with sensor Zinhbo-5 are somewhat different in light of the previously reported data where zinc was detected using fluorescent sensors in zebrafish. In those studies, fluorescent labeling was concentrated in the heart ventricle of embryos (50 hpf), and scattered throughout the body in larvae (4-5-day old). Whereas Zinhbo-5 labeling is confined mainly to the nose and neuromasts of the lateral line system during this period.
All images show lateral views of live embryos (anterior to the left and dorsal up). The labeled cells are scattered throughout the embryo at 17 hpf (panels A and B). Panel B is a higher magnification of the mid-trunk region of the embryo shown in panel A. Arrowheads in panel B indicate several labeled cells. Zinhbo-5 labeling becomes more restricted as development proceeds. At 50 hpf, Most labeled cells are concentrated in the nose neuromasts of the lateral line system (panels C-F). Arrowheads and asterisks in panels C and D point to some neuromasts in the posterior lateral line system on this side and the other side of the body trunk, respectively. Panels E and F are higher magnifications of the head region of the labeled embryos. Embryos in panels D and F had been treated with Zn2+ before Zinhbo-5 labeling. (Abbreviations: io2, infraorbital line neuromast 2; ml1, middle line neuromast 1; n, nose; o1 and o2, otic lateral line neuromasts 1 and 2; po1, postorbital neuromast 1; so2, supraorbital line neuromast 2).
All images show lateral views (anterior to the left and dorsal up) of live zebrafish larvae. Panels A-C are low magnification images showing almost the entire fish; panels D-F show higher magnification of the head region, while panels G-J show higher magnification of the mid-trunk region of the fish. Panels A, D and G are from larvae labeled with Zinhbo-5. Panels B, E and I are from larvae that had been treated with zinc before exposed to Zinhbo-5. Panels C, F and J are from larvae that were simultaneously treated with Zinhbo-5 and TPEN. […] (Abbreviations: io1 and io3, infraorbital line neuromasts 1 and 3; so1, supraorbital line neuromast 1; ye, yolk extension. Other abbreviations are the same as in FIG. 9).

Another data set concerns Hela cells. As to the kind of experiment: Fluorescence imaging of intracellular Zn^2+ in Hela cells. Format: cell-based. The method, then:
The Zinhbo-5 sensor was applied on Hela cells, in order to examine whether the probe could be useful in living systems under a confocal laser scanning microscopy. […] After three times washing with PBS buffer, the cells were incubated with ZnCl2 (10 μM) in the medium for another 30 min at 37° C., and the fluorescence in living cells was much brighter (FIG. 20, at D).
Hela cells were cultured in DEME (Invitrogen) supplemented with 10% FCS (Invitrogen). One day before imaging, cells were seeded in 24-well flat-bottomed plates. The next day, the Hela cells were incubated with 10 μM sensor Zinhbo-5 for 0.5 h at 37° C. under 5% CO2 and then washed with phosphate-buffered saline (PBS) three times before incubating with 10 μM ZnCl2 for another 0.5 h, cells were rinsed with PBS three times again, then the fluorescence imaging of intracelluar Zn2+ was observed under Nikon eclipase TE2000-5 inverted fluorescence microscopy with a 32× objective lens. The Hela cells only incubated with 10 μM Zinhbo-5 for 0.5 hour at 37° C. under 5% CO2 was as a control. For all images, the microscope settings, such as brightness, contrast, and exposure time were held constant to compare the relative intensity of intracellular Zn^2+ fluorescence.

The conditions of data set [3]: 0.1 M H2SO4; cited from earlier work.

Each structure is given as a SMILES string. Where a name gives a salt, the structure may show the parent alone.

As to `CC(C)(C)c1ccc2oc(-c3cc(O)c(-c4nc5c(CN(Cc6ccccn6)Cc6ccccn6)cccc5o4)cc3O)nc2c1` [Zinhbo-5], in data set [1] (2:1 host-guest complex, fluorescence at 710 nm), the “association constant K12 / overall association constant Kass” value was 3.88×10^10 M^−2. Moreover, in data set [1] (aqueous solution), the “Kd (sensitivity for Zn^2+)” value was 2.58 nM^2. Moreover, the “association constant Kass2” value in data set [1] (fluorescence at 710 nm) amounted to 121000 M⁻¹. The “association constant K11 / Kass1” value in data set [1] (fluorescence intensity versus Zn^2+ concentration, 710 nm) turned out to be 321000 M⁻¹. Besides, in data set [2] (FIGS. 12 and 13, keto form ESIPT emission), the “new emission peak upon addition of Zn^2+” value is ~763 nm. Further, the “fluorescence quantum yield Φfl upon addition of one equivalent Zn2+” value in data set [2] (HEPES buffer solution with 50% EtOH, 1 equivalent Zn2+) is listed as 0.17. The “fluorescence quantum yield Φfl of free ligand” value in data set [2] (HEPES buffer solution with 50% EtOH, no Zn^2+) is reported as 0.081. For the same compound, in data set [2] (aqueous solution), the “fluorescence enhancement upon zinc binding (green emission)” value was “about 14 fold”. In addition, the “NIR emission strength upon zinc binding, comparison” value in data set [2] (at ~763 nm, THF, excitation 480 nm (FIG. 14), Zinhbo-5 vs Zinhbo-1, 9 vs crystal 10) is “quite stronger NIR emission”. Also, the “Stokes shift of the new emission peak” value in data set [2] (peak at ~763 nm) was ~285 nm. Further, the “distribution of labeled zinc-concentrated cells” value with zebrafish (17 hpf, one hour treatment at room temperature) was “distributed throughout the embryos”; in the data set with zebrafish (50 hpf and 72 hpf), “mainly located in the nose and neuromasts of the lateral line system”. Further, the “labeling pattern in older larvae” value with zebrafish (82 hpf) is “remained similar”. The “labeling in lateral line structures, exogenous Zn^2+ treated vs untreated larvae” value in the data set with zebrafish (82 hpf, Zn^2+ 20 μM) is “no obvious difference”. In addition, the “labeling in larvae treated with TPEN” value with zebrafish (82 hpf, zinc chelator TPEN) is given as “almost completely eliminated”. Moreover, the “fluorescence inside living cells, probe only” value with Hela cells (10 μM probe, 30 min, 37° C.) is listed as “very weak fluorescence”. Also, the “cell viability in bright-field transmission image” value in the data set on Hela cells (cells treated with probe and Zn^2+) is on record as “viable throughout the imaging experiments”. For the same compound, the “toxicity to the cell culture” value in the data set with Hela cells (imaging conditions) was “primarily nontoxic”. In addition, the cell permeability result with Hela cells (living cells) was “cell-permeable”. Further, in the data set with Hela cells (then ZnCl2 (10 μM), 30 min, 37° C.), the “fluorescence in living cells after incubation with ZnCl2” value is recorded as “much brighter”. Also, in the data set with Hela cells (zinc chelator TPEN added after Zn^2+), the “emission intensity after subsequent addition of TPEN” value is listed as “reverted the emission intensity to that of the zinc-free system”.
As for `C=C[C@H]1C[N@@]2CC[C@H]1C[C@H]2[C@H](O)c1ccnc2ccc(OC)cc12` [quinine sulfate], in data set [3], the “fluorescence quantum yield of standard” value is recorded as 0.53.

The record behind these values is patent US9845318B2, “Class of near infrared optical probes for biological applications” (The University of Akron, priority 2012, dated 2017).
